Patent US11352340B2, “Pyridine and pyridimine compounds as PI3K-gamma inhibitors” (Incyte Corporation, priority 2016, dated 2022)
Structures can show the parent of a compound that is named as a salt.

How the values were obtained:
[1] = target: PI3Kδ (p110δ/p85α) Recombinant Human Protein (Homo sapiens (Human), UniProt O00329); assay: PI3Kδ Scintillation Proximity Assay; type: biochemical; settings: read-out: PI3K-delta SPA IC50
Outline: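 IC50 was fitted to percent solvent-control activity from SPA scintillation counts after WGA bead capture of 33P-labelled lipid product. Reaction: 120 min, room temperature, 3.4 nM p110δ/p85α, 20 μM PIP2, 2 μM ATP with tracer, MOPS pH 6.7 buffer containing MgCl2, DTT, CHAPS, 2% DMSO.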

[2] = target: PI3Kγ (p110γ) Recombinant Human Protein (Homo sapiens (Human), UniProt P48736); assay: PI3K-γ Scintillation Proximity Assay; type: biochemical; settings: read-out: PI3K-gamma SPA IC50
Outline: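 Radiometric SPA: reaction at room temperature for 120 min using 2 μM ATP with [γ-33P]ATP tracer, 20 μM PIP2 substrate and 13 nM human PI3Kγ (MOPS pH 6.7, MgCl2, DTT, CHAPS; 2% DMSO). EDTA quench with WGA beads, scintillation count, and IC50 fit of percent-of-control activity.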

Chain of PI3Kδ (p110δ/p85α) Recombinant Human Protein (O00329 whole entry): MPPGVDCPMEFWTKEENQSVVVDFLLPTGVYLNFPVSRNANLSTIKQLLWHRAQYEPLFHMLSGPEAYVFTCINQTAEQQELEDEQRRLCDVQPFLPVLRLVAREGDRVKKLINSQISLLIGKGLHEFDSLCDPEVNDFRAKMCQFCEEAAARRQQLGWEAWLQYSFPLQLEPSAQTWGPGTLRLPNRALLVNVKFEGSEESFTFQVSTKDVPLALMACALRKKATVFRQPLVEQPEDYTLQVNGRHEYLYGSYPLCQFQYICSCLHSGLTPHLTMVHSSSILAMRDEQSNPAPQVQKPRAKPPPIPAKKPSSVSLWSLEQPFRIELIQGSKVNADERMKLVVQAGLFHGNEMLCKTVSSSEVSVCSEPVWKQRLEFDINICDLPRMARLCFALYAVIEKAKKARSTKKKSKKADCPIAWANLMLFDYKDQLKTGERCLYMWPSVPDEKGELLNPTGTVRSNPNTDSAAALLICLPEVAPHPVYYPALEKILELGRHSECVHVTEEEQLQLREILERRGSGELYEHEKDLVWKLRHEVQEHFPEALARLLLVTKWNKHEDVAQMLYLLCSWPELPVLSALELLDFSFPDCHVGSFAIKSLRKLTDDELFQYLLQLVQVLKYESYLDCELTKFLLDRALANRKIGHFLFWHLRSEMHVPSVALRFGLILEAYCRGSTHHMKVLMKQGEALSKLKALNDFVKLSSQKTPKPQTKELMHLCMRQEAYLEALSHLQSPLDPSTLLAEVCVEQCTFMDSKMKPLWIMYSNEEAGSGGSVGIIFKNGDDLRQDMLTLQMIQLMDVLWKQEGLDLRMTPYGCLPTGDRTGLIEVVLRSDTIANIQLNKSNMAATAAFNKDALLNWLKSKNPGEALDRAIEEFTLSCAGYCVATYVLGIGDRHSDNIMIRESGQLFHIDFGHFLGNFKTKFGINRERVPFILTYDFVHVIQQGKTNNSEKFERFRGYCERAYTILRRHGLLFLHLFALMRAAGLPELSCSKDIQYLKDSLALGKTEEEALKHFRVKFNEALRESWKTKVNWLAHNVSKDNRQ
Chain of PI3Kδ (p110δ/p85α) Recombinant Human Protein (P27986 whole entry partner): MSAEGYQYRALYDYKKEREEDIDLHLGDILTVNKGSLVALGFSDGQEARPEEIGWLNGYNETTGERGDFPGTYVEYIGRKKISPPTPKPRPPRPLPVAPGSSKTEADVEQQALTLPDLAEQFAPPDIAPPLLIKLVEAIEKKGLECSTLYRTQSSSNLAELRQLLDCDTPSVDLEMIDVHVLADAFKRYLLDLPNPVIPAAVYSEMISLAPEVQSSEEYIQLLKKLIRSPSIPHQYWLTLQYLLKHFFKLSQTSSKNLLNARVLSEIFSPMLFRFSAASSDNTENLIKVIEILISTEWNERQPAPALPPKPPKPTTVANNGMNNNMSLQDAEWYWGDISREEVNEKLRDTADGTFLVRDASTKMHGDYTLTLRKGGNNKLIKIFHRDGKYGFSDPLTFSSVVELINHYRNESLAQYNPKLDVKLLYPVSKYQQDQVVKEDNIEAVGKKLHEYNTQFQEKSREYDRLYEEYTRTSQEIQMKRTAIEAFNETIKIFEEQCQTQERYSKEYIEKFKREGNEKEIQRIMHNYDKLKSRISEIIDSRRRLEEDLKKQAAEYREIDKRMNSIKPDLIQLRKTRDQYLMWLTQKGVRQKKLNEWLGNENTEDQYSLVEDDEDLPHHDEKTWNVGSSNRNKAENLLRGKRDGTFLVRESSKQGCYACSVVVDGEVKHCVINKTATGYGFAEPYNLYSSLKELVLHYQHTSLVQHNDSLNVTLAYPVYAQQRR
Chain of PI3Kγ (p110γ) Recombinant Human Protein (P48736 whole entry): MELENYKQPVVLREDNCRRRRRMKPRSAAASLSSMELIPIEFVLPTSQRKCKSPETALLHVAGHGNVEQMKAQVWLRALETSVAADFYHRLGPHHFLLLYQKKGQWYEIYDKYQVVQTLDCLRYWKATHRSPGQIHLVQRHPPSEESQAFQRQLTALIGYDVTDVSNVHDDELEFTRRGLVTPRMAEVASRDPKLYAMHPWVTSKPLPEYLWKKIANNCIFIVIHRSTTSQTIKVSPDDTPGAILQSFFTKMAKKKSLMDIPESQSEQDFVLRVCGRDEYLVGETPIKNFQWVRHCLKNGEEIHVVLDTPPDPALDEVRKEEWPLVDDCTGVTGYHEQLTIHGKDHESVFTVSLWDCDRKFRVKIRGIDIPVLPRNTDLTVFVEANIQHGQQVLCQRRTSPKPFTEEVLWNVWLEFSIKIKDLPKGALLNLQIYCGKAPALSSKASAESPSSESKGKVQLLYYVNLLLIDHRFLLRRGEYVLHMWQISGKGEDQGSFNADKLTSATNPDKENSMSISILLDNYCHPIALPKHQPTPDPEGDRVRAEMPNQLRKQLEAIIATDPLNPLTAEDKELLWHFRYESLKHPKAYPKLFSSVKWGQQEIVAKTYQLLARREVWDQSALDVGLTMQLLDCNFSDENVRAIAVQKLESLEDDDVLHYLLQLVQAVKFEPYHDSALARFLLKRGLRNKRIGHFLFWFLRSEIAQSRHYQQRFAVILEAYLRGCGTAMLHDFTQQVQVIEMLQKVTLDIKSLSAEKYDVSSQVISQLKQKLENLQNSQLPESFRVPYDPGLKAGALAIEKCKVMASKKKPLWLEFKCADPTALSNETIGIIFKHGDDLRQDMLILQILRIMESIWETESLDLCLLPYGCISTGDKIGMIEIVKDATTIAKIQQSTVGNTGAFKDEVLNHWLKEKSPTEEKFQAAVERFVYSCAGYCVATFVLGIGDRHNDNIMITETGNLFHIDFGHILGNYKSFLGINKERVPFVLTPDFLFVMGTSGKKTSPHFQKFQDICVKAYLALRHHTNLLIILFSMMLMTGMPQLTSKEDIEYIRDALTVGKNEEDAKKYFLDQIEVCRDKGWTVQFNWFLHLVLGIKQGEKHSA

| Structure (SMILES) | IC50 [1] [nM] | IC50 [2] [nM] |
| --- | --- | --- |
| Cc1nc(-c2cc(C3=CCCN(Cc4ccccc4)C3)ccn2)[nH]c1C [Example 223, 4-(1-Benzyl-1,2,5,6-tetrahydropyridin-3-yl)-2-(4,5-dimethyl-1H-imidazol-2-yl)pyridine trifluoroacetate salt] | > 500 | > 500 |
| Cc1nc(-c2cc(C3=CCCN(Cc4ccc(Cl)cc4)C3)ccn2)[nH]c1C [Example 224, 4-(1-(4-Chlorobenzyl)-1,2,5,6-tetrahydropyridin-3-yl)-2-(4,5-dimethyl-1H-imidazol-2-yl)pyridine trifluoroacetate salt] | > 500 | > 500 |
| Cc1nc(-c2cc(C3=CCCN(CC4CCOCC4)C3)ccn2)[nH]c1C [Example 225, 2-(4,5-Dimethyl-1H-imidazol-2-yl)-4-(1-((tetrahydro-2H-pyran-4-yl)methyl)-1,2,5,6-tetrahydropyridin-3-yl)pyridine trifluoroacetate salt] | > 500 | > 500 |
| CC(=O)N1CC=C(c2ccnc(-c3nc(C)c(C)[nH]3)c2)C1 [Example 226, 1-(3-(2-(4,5-Dimethyl-1H-imidazol-2-yl)pyridin-4-yl)-2,5-dihydro-1H-pyrrol-1-yl)ethanone trifluoroacetate salt] | > 500 | > 500 |
| Cc1nc(-c2cc(C3=CCN(S(C)(=O)=O)C3)ccn2)[nH]c1C [Example 227, 2-(4,5-Dimethyl-1H-imidazol-2-yl)-4-(1-(methylsulfonyl)-2,5-dihydro-1H-pyrrol-3-yl)pyridine trifluoroacetate salt] | > 500 | > 500 |
| Cc1nc(-c2cc(C3=CCN(Cc4ccccc4)C3)ccn2)[nH]c1C [Example 228, 4-(1-Benzyl-2,5-dihydro-1H-pyrrol-3-yl)-2-(4,5-dimethyl-1H-imidazol-2-yl)pyridine trifluoroacetate salt] | > 500 | > 500 |
| Cc1nc(-c2cc(C3=CCN(Cc4ccc(Cl)cc4)C3)ccn2)[nH]c1C [Example 229, 4-(1-(4-Chlorobenzyl)-2,5-dihydro-1H-pyrrol-3-yl)-2-(4,5-dimethyl-1H-imidazol-2-yl)pyridine trifluoroacetate salt] | > 500 | > 500 |
| Cc1nc(-c2cc(C3=CCN(CC4CCOCC4)C3)ccn2)[nH]c1C [Example 230, 2-(4,5-Dimethyl-1H-imidazol-2-yl)-4-(1-((tetrahydro-2H-pyran-4-yl)methyl)-2,5-dihydro-1H-pyrrol-3-yl)pyridine trifluoroacetate salt] | > 500 | > 500 |
| Cc1nc(-c2cc(-c3cncc(Cl)c3)ccn2)[nH]c1C [Example 234, 5-Chloro-2′-(4,5-dimethyl-1H-imidazol-2-yl)-3,4′-bipyridine] | ≤ 100 | ≤ 100 |
| Cc1nc(-c2cc(-c3cncc(C4=CCN(C(=O)OC(C)(C)C)C4)c3)ccn2)[nH]c1C [Example 235, tert-Butyl 3-[2′-(4,5-dimethyl-1H-imidazol-2-yl)-3,4′-bipyridin-5-yl]-2,5-dihydro-1H-pyrrole-1-carboxylate] | > 500 | ≤ 500 |
| Cc1nc(-c2cc(-c3cncc(C4=CCNC4)c3)ccn2)[nH]c1C [Example 236, 5-(2,5-Dihydro-1H-pyrrol-3-yl)-2′-(4,5-dimethyl-1H-imidazol-2-yl)-3,4′-bipyridine] | > 500 | > 500 |
| CC(=O)N1CC=C(c2cncc(-c3ccnc(-c4nc(C)c(C)[nH]4)c3)c2)C1 [Example 238, 1-(3-(2′-(4,5-Dimethyl-1H-imidazol-2-yl)-3,4′-bipyridin-5-yl)-2,5-dihydro-1H-pyrrol-1-yl)ethanone] | ≤ 500 | > 500 |
| COC(=O)N1CC=C(c2cncc(-c3ccnc(-c4nc(C)c(C)[nH]4)c3)c2)C1 [Example 239, Methyl 3-(2′-(4,5-dimethyl-1H-imidazol-2-y1)-3,4′-bipyridin-5-yl)-2,5-dihydro-1H-pyrrole-1-carboxylate] | ≤ 500 | ≤ 500 |
| Cc1[nH]c(-c2cc(-c3cncc(S(C)(=O)=O)c3)ccn2)nc1C(=O)N1CC[C@H](O)C1 [Example 246, (3S)-1-({5-Methyl-2-[5-(methylsulfonyl)-3,4′-bipyridin-2′-yl]-1H-imidazol-4-yl}carbonyl)pyrrolidin-3-ol] | ≤ 500 | ≤ 500 |
| Cc1[nH]c(-c2cc(-c3cncc(S(C)(=O)=O)c3)ccn2)nc1C(=O)N(C)C [Example 251, N,N,5-Trimethyl-2-[5-(methylsulfonyl)-3,4′-bipyridin-2′-yl]-1H-imidazole-4-carboxamide trifluoroacetate salt] | ≤ 100 | ≤ 500 |
| Cc1[nH]c(-c2cc(-c3cncc(N4CCOCC4)c3)ccn2)nc1C(=O)O [Example 257, 5-Methyl-2-(5-morpholin-4-yl-3,4′-bipyridin-2′-yl)-1H-imidazole-4-carboxylic Acid Trifluoroacetate Salt] | > 500 | ≤ 500 |

| Structure (SMILES) | IC50 [1] [nM] | IC50 [2] [nM] |
| --- | --- | --- |
| Cc1[nH]c(-c2cc(-c3cncc(N4CCOCC4)c3)ccn2)nc1C(=O)N(C)C(C)C [Example 259, N-Isopropyl-N,5-dimethyl-2-(5-morpholin-4-yl-3,4′-bipyridin-2′-yl)-1H-imidazole-4-carboxamide] | ≤ 500 | ≤ 500 |
| CCN(C)C(=O)c1nc(-c2cc(-c3cncc(N4CCOCC4)c3)ccn2)[nH]c1C [Example 260, N-Ethyl-N,5-dimethyl-2-(5-morpholin-4-yl-3,4′-bipyridin-2′-yl)-1H-imidazole-4-carboxamide] | ≤ 500 | ≤ 500 |
| COC1CN(C(=O)c2nc(-c3cc(-c4cncc(N5CCOCC5)c4)ccn3)[nH]c2C)C1 [Example 263, 2′-{4-[(3-Methoxyazetidin-1-yl)carbonyl]-5-methyl-1H-imidazol-2-yl}-5-morpholin-4-yl-3,4′-bipyridine] | ≤ 50 | ≤ 100 |
| Cc1[nH]c(-c2cc(-c3cncc(N4CCOCC4)c3)ccn2)nc1C(=O)N[C@@H]1CCN(Cc2ccccc2)C1 [Example 280, N-[(3R)-1-Benzylpyrrolidin-3-yl]-5-methyl-2-(5-morpholin-4-yl-3,4′-bipyridin-2′-yl)-1H-imidazole-4-carboxamide trifluoroacetate salt] | ≤ 50 | ≤ 500 |
| Cc1[nH]c(-c2cc(-c3cncc(N4CCOCC4)c3)ccn2)nc1CNC1CCOCC1 [Example 283, N-{[5-Methyl-2-(5-morpholin-4-yl-3,4′-bipyridin-2′-yl)-1H-imidazol-4-yl]methyl}tetrahydro-2H-pyran-4-amine] | ≤ 100 | > 500 |
| Cc1[nH]c(-c2cc(-c3cncc(N4CCOCC4)c3)ccn2)nc1CNC1CCCC1 [Example 284, N-{[5-Methyl-2-(5-morpholin-4-yl-3,4′-bipyridin-2′-yl)-1H-imidazol-4-yl]methyl}cyclopentanamine] | ≤ 100 | > 500 |
| Cc1[nH]c(-c2cc(-c3cncc(N4CCOCC4)c3)ccn2)nc1CNC(C)C [Example 285, N-{[5-Methyl-2-(5-morpholin-4-yl-3,4′-bipyridin-2′-yl)-1H-imidazol-4-yl]methyl}propan-2-amine] | ≤ 500 | > 500 |
| Cc1[nH]c(-c2cc(-c3cncc(N4CCOCC4)c3)ccn2)nc1CN[C@H]1CCOC1 [Example 286, (3S)-N-{[5-Methyl-2-(5-morpholin-4-yl-3,4′-bipyridin-2′-yl)-1H-imidazol-4-yl]methyl}tetrahydrofuran-3-amine] | ≤ 500 | > 500 |
| Cc1[nH]c(-c2cc(-c3cncc(N4CCOCC4)c3)ccn2)nc1CN[C@@H]1CCOC1 [Example 287, (3R)-N-{[5-Methyl-2-(5-morpholin-4-yl-3,4′-bipyridin-2′-yl)-1H-imidazol-4-yl]methyl}tetrahydrofuran-3-amine] | ≤ 500 | > 500 |
| CNCc1nc(-c2cc(-c3cncc(N4CCOCC4)c3)ccn2)[nH]c1C [Example 288, N-Methyl-1-[5-methyl-2-(5-morpholin-4-yl-3,4′-bipyridin-2′-yl)-1H-imidazol-4-yl]methanamine] | ≤ 500 | > 500 |
| Cc1[nH]c(-c2cc(-c3cncc(N4CCOCC4)c3)ccn2)nc1CN(C)C [Example 289, N,N-Dimethyl-1-[5-methyl-2-(5-morpholin-4-yl-3,4′-bipyridin-2′-yl)-1H-imidazol-4-yl]methanamine] | ≤ 50 | > 500 |
| COCCNCc1nc(-c2cc(-c3cncc(N4CCOCC4)c3)ccn2)[nH]c1C [Example 290, 2-Methoxy-N-{[5-methyl-2-(5-morpholin-4-yl-3,4′-bipyridin-2′-yl)-1H-imidazol-4-yl]methyl}ethanamine] | ≤ 100 | > 500 |
| COCCCNCc1nc(-c2cc(-c3cncc(N4CCOCC4)c3)ccn2)[nH]c1C [Example 291, 3-Methoxy-N-{[5-methyl-2-(5-morpholin-4-yl-3,4′-bipyridin-2′-yl)-1H-imidazol-4-yl]methyl}propan-1-amine] | ≤ 50 | > 500 |
| Cc1[nH]c(-c2cc(-c3cncc(N4CCOCC4)c3)ccn2)nc1CN1CCOCC1 [Example 292, 2′-[5-Methyl-4-(morpholin-4-ylmethyl)-1H-imidazol-2-yl]-5-morpholin-4-yl-3,4′-bipyridine] | ≤ 100 | ≤ 500 |
| CC(=O)N1CCC(c2c[nH]c(-c3cc(-c4cnn(Cc5ccc(Cl)cc5)c4)ccn3)n2)C1 (centres unmarked) [Example 301, 2-[4-(1-Acetylpyrrolidin-3-yl)-1H-imidazol-2-yl]-4-[1-(4-chlorobenzyl)-1H-pyrazol-4-yl]pyridine trifluoroacetate salt] | > 500 | ≤ 500 |
